{"source": "patent US20080098491A1", "about": "“MOUSE MODELS TO STUDY CACHEXIA” (ZOLTAN LABORATORIES LLC, priority 2006, published 2008)", "key": {"[1]": {"tested_on": "MXT mouse mammary tumor", "experiment": "Cisplatin-treated MXT mouse mammary tumor model, purified PALP, AT, holo-TF, apo-TF (Example 9, Experiment 2)", "type": "in vivo", "conditions": "every second day from day 7 (6-times): cisplatin 3-mg/kg i.p., proteins 12-mg/kg s.c.", "text": "(§1) The B16 mouse melanoma and MXT mouse mammary tumors were developed in first generation hybrid BDF1 (C57 B1 female×DBA/2 male) adult female mice kept at specified pathogen free (SPF) hygienic level. These models were chosen for these experiments because these mice have the complete immune system, and both tumors grow very rapidly. To develop the tumors, B16 and MXT tumor tissue fragments of about 0.1-cm^3 were surgically implanted subcutaneously into the intrascapular region to develop the tumors. Each tumor fragment contained about 1-1.5×10^6 cells. The animals were kept in macrolon cages on ventilated rack at 22-24° C. (50-60% humidity) with lighting regimen of 12/12 h light/dark. The animals had free access to tap water and were fed with sterilized standard diet (Charles River VRF1, Germany) ad libitum. The animals were taken care of according to the “Guiding Principle for the care and use of Animals” based upon the Helsinki declaration and they were approved by the local ethical committee.\n(§2) In case of both tumor models the tumor size was usually in the range of 0.2 to 0.5-g when treatments started 7-11 days after tumor implantation; the mice were selected so that in the same treatment group the difference in tumor size was no greater than 0.1 gram. In some experiments, the test proteins were suspended in physiological saline and injected in 50-μl volume subcutaneously in the vicinity of tumor (within 1-cm of tumor margin). In other experiments, the test proteins were dispersed in Vaselinum cholesteratum and used topically; 150-mg cream was applied on the tumor and the vicinity of tumor area (with about 0.5-cm of the tumor margin). The tumor volume was determined by using calipers; this technique is well known to one having ordinary skill in the art. Tumor volume was calculated according to the generally accepted formula: V=a^2×b×7r/6, where “a” and “b” mean the shortest and longest diameter, respectively, of the measured tumor.\nExperiment 2. The commercial PALP used in this model for Exp. 1 was composed of PALP (˜10%), TF (˜12%), AT (˜30%), albumin (˜35%) and the degradation products of TF (˜13%). […] In this experiment, it was determined whether the other two major proteins, i.e. TF and AT, present in the commercial PALP preparation in addition to PALP, also influence cisplatin-induced loss of body weight or not. The mouse MXT mammary tumor was developed as described in Example 3. In the first group, animals remained untreated during the whole observation period. In the second group, starting on the 7th day after tumor implantation, mice were administered 3-mg per 1-kg of cisplatin i.p. 6-times every second day. In the third group, starting on the 7th day after tumor implantation, mice were simultaneously administered 3-mg per 1-kg of cisplatin i.p. and 12-mg per 1-kg of purified PALP s.c. In the fourth group, starting on the 7th day after tumor implantation, mice were simultaneously administered 3-mg per 1-kg of cisplatin i.p. and 12-mg per 1-kg of highly purified AT s.c. In the fifth group, starting on the 7th day after tumor implantation, mice were simultaneously administered 3-mg per 1-kg of cisplatin i.p. and 12-mg per 1-kg of commercial holo-TF (h-TF, T 0665 in the Sigma catalog) s.c. In the sixth group, starting on the 7th day after tumor implantation, mice were simultaneously administered 3-mg per 1-kg of cisplatin i.p. and 12-mg per 1-kg of commercial apo-TF (a-TF, T 2036 in the Sigma catalog) s.c. Holo-TF contained 1,100-1,600 μg iron per gram protein while apo-TF was essentially iron-free. Each treatment with the proteins was also performed 6-times on every second day simultaneously with the cisplatin treatment. Each group included 7 animals. The mean values for total weight, tumor weight and body weight (the difference between total and tumor weight) are shown in gram in TABLE 7."}, "[2]": {"tested_on": "MXT mouse mammary tumor", "experiment": "Cisplatin-treated MXT mouse mammary tumor model, PALP and TF (Example 9, Experiment 1)", "type": "in vivo", "conditions": "for Body weight (total weight minus tumor weight) / Total weight / Tumor weight: every second day from day 7 (7-times): cisplatin 3-mg/kg i.p., purified PALP 16, commercial PALP 60, TF 14 mg/kg s.c.", "text": "as §1, §2\nExperiment 1. The mouse MXT mammary tumor was developed as described in Example 3. In the first group, animals remained untreated during the whole observation period. In the second group, starting on the 7th day after tumor implantation, mice were intraperitoneally (i.p.) administered 3-mg per 1-kg total weight of cisplatin 7-times every second day. In the third group, starting on the 7th day after tumor implantation, mice were simultaneously administered 3-mg per 1-kg of cisplatin i.p. and 16-mg per 1-kg of purified PALP s.c. In the fourth group, starting on the 7th day after tumor implantation, mice were simultaneously administered 3-mg per 1-kg of cisplatin i.p. and 60-mg per 1-kg of commercial PALP s.c. In the fifth group, starting on the 7th day after tumor implantation, mice were simultaneously administered 3-mg per 1-kg of cisplatin i.p. and 14-mg per 1-kg of commercial TF (T 3309 in the Sigma catalog) s.c. Each treatment was performed 7-times on every second day. Each group included 7 animals. The mean values for total weight, tumor weight and body weight (the difference between total and tumor weight) are shown in TABLE 6."}, "[3]": {"conditions": "day 7 after tumor transplantation"}, "[4]": {"conditions": "day 11 after tumor transplantation"}, "[5]": {"conditions": "day 14 after tumor transplantation"}, "[6]": {"conditions": "day 16 after tumor transplantation"}, "[7]": {"conditions": "day 18 after tumor transplantation"}, "[8]": {"conditions": "day 21 after tumor transplantation"}}}
{"compound": "N.N.[Cl][Pt][Cl]", "note": "[Cisplatin, cisplatin]", "values": [{"measurement": "Body weight (total weight minus tumor weight)", "setting": "[1]; day 7 after transplantation", "value": 22.25, "unit": "g"}, {"measurement": "Total weight", "setting": "[1]; day 7 after transplantation", "value": 22.6, "unit": "g"}, {"measurement": "Tumor weight", "setting": "[1]; day 7 after transplantation", "value": 0.35, "unit": "g"}, {"measurement": "Body weight (total weight minus tumor weight)", "setting": "[1]; day 11 after transplantation", "value": 21.25, "unit": "g"}, {"measurement": "Total weight", "setting": "[1]; day 11 after transplantation", "value": 22.7, "unit": "g"}, {"measurement": "Tumor weight", "setting": "[1]; day 11 after transplantation", "value": 1.45, "unit": "g"}, {"measurement": "Body weight (total weight minus tumor weight)", "setting": "[1]; day 13 after transplantation", "value": 20.05, "unit": "g"}, {"measurement": "Total weight", "setting": "[1]; day 13 after transplantation", "value": 21.9, "unit": "g"}, {"measurement": "Tumor weight", "setting": "[1]; day 13 after transplantation", "value": 1.85, "unit": "g"}, {"measurement": "Body weight (total weight minus tumor weight)", "setting": "[1]; day 15 after transplantation", "value": 18.1, "unit": "g"}, {"measurement": "Total weight", "setting": "[1]; day 15 after transplantation", "value": 20.8, "unit": "g"}, {"measurement": "Tumor weight", "setting": "[1]; day 15 after transplantation", "value": 2.7, "unit": "g"}, {"measurement": "Body weight (total weight minus tumor weight)", "setting": "[1]; day 18 after transplantation", "value": 16.8, "unit": "g"}, {"measurement": "Total weight", "setting": "[1]; day 18 after transplantation", "value": 20.3, "unit": "g"}, {"measurement": "Tumor weight", "setting": "[1]; day 18 after transplantation", "value": 3.5, "unit": "g"}, {"measurement": "Body weight (total weight minus tumor weight)", "setting": "[2]; [3]", "value": 22.45, "unit": "g"}, {"measurement": "Total weight", "setting": "[2]; [3]", "value": 22.70, "unit": "g"}, {"measurement": "Tumor weight", "setting": "[2]; [3]", "value": 0.25, "unit": "g"}, {"measurement": "Body weight (total weight minus tumor weight)", "setting": "[2]; [4]", "value": 22.10, "unit": "g"}, {"measurement": "Total weight", "setting": "[2]; [4]", "value": 23.10, "unit": "g"}, {"measurement": "Tumor weight", "setting": "[2]; [4]", "value": 1.00, "unit": "g"}, {"measurement": "Body weight (total weight minus tumor weight)", "setting": "[2]; [5]", "value": 19.50, "unit": "g"}, {"measurement": "Total weight", "setting": "[2]; [5]", "value": 21.70, "unit": "g"}, {"measurement": "Tumor weight", "setting": "[2]; [5]", "value": 2.20, "unit": "g"}, {"measurement": "Body weight (total weight minus tumor weight)", "setting": "[2]; [6]", "value": 16.90, "unit": "g"}, {"measurement": "Total weight", "setting": "[2]; [6]", "value": 20.10, "unit": "g"}, {"measurement": "Tumor weight", "setting": "[2]; [6]", "value": 3.20, "unit": "g"}, {"measurement": "Body weight (total weight minus tumor weight)", "setting": "[2]; [7]", "value": 16.30, "unit": "g"}, {"measurement": "Total weight", "setting": "[2]; [7]", "value": 20.10, "unit": "g"}, {"measurement": "Tumor weight", "setting": "[2]; [7]", "value": 3.80, "unit": "g"}, {"measurement": "Body weight (total weight minus tumor weight)", "setting": "[2]; [8]", "value": 15.10, "unit": "g"}, {"measurement": "Total weight", "setting": "[2]; [8]", "value": 19.20, "unit": "g"}, {"measurement": "Tumor weight", "setting": "[2]; [8]", "value": 4.10, "unit": "g"}, {"measurement": "Decrease in body weight", "setting": "[2]; from day 11 to day 23, cisplatin 3-mg/kg i.p. every second day", "value": "~33", "unit": "%"}]}
